Experimental data from patent US8658801B2, “Pesticides containing a bicyclic bisamide structure” (Syngenta Crop Protection, LLC, priority 2006, dated 2014).

How the values were obtained:
[1] = test system: Frankliniella occidentalis (Western Flower Thrips); experiment: Example B9: activity against Frankliniella occidentalis (bean leaf discs or bean plants); type: in vivo; conditions: foliar, 6 days (leaf discs) or 14 days (plants) after infestation
Description: Activity Against Frankliniella occidentalis (Western Flower Thrips)
Bean leaf discs on agar in petri dishes or bean plants in a spray chamber are treated with diluted test solutions. After drying leaf discs are cut and placed in plastic cups on the surface of an agar layer and infested with mixed population. 6 days (leaf discs) or 14 days (plants) after the infestation, samples are checked for reduction of treated population and compared to the non treated population.

[2] = test system: Myzus persicae (Green Peach Aphid); experiment: Example B5: activity against Myzus persicae, mixed population, feeding/residual contact, preventive (sunflower leaf discs); conditions: foliar, 144 h, read-out: activity
[3] = test system: Diabrotica balteata (Corn Root Worm); experiment: Example B4: Diabrotica balteata, larvicide, feeding/residual contact, preventive; type: in vivo; conditions: 120 h, 5 days incubation, L2 larvae
Description: Diabrotica balteata (Corn Root Worm)
(§1) (Larvicide, Feeding/Residual Contact Activity, Preventive)
After drying, the MTP's are infested with larvae (L2)(6-10 per well). After an incubation period of 5 days, samples are checked for larval mortality, antifeedant and growth regulation. In this test, compounds listed in Table P above show good activity. In particular compounds P.1, P.2, P.5, P.6, P.10, P.11, P.12, P.13, P.15, P.16, P.17, P.18, P.19, P.24, P.25, P.27, P.28, P.29, P.30, P.31, P.33, P.34, P.35, P.37, P.38, P.39, P.42, P.43, P.44, P.45, P.46, P.47, P.48, P.49, P.50, P.52, P.53, P.65, P.67, P.68, P.69, P.70, P.71, P.72, P.75, P.78, and P.79 show an activity of over 80% at a concentration of 400 ppm.

[4] = test system: Spodoptera littoralis (Egyptian Cotton Leafworm); experiment: Example B1: activity against Spodoptera littoralis, larvicide, feeding/residual contact, preventive (cotton leaf discs); type: in vivo; conditions: foliar, 72 h, 3 days after treatment, L1 larvae
From the text: Activity Against Spodoptera littoralis (Egyptian Cotton Leafworm)
as §1
The samples are checked for mortality, repellent effect, feeding behaviour, and growth regulation 3 days after treatment. In this test, compounds listed in Table P above show good activity. In particular compounds P.1, P.2, P.3, P.4, P.5, P.6, P.7, P.9, P.10, P.11, P.12, P.13, P.15, P.16, P.17, P.18, P.19, P.20, P.21, P.22, P.23, P.24, P.25, P.26, P.27, P.28, P.29, P.30, P.31, P.32, P.33, P.34, P.35, P.36, P.37, P.38, P.39, P.40, P.41, P.42, P.43, P.44, P.45, P.46, P.47, P.48, P.49, P.50, P.51, P.52, P.53, P.54, P.55, P.56, P.57, P.58, P.59, P.60, P.61, P.63, P.64, P.67, P.68 and P.70 show an activity of over 80% at a concentration of 400 ppm.

[5] = test system: Cydia pomonella (Codling Moth); experiment: Example B8: activity against Cydia pomonella (paraffin-coated diet cubes); type: in vivo; conditions: 336 h, 14 days incubation at 26° C.
Description: Activity Against Cydia pomonella (Codling Moth)
Standard Cydia diet cubes (1.5 cm width) are pierced with a tooth-pick and are immersed in liquid paraffin (ca. 80° C.). After the paraffin coat has hardened, an aqueous emulsion containing 400 ppm of active ingredient is applied using a De Vilbis sprayer (25 ml, 1 bar). After the spray coating has dried, the cubes are put into plastic containers which are then populated with two freshly hatched Cydia pomonella (1st instar). The containers are then closed with a plastic cap. After 14 days incubation at 26° C. and 40-60% relative humidity, the survival rate of the caterpillars as well as their growth regulation is determined. In this test, compounds listed in Table P above show good activity. In particular compounds P.10, P.11, P.12, P.18, P.19, P.20, P.29, P.30, P.31, P.32, P.33, P.34, P.35, P.37, P.38, P.39, P.42, and P.43 show an activity of over 80% at a concentration of 400 ppm.

[6] = test system: Plutella xylostella (Diamond Back Moth); experiment: Example B3: Plutella xylostella, larvicide, feeding/residual contact, preventive (artificial diet MTP); type: in vivo; conditions: 120 h, 5 days incubation, L2 larvae
Description: Plutella xylostella (Diamond Back Moth)
as §1
24-well microtiter plate (MTP) with artificial diet is treated with test solutions by pipetting. After drying, the MTP's are infested with larvae (L2)(10-15 per well). After an incubation period of 5 days, samples are checked for larval mortality, antifeedant and growth regulation. In this test, compounds listed in Table P above show good activity. In particular compounds P.1, P.2, P.3, P.4, P.5, P.6, P.7, P.9, P.10, P.11, P.12, P.13, P.15, P.16, P.17, P.18, P.19, P.20, P.21, P.22, P.23, P.25, P.26, P.27, P.28, P.29, P.30, P.31, P.32, P.33, P.34, P.35, P.36, P.37, P.38, P.39, P.40, P.41, P.42, P.43, P.44, P.46, P.47, P.48, P.49, P.50, P.51, P.52, P.53, P.54, P.55, P.56, P.57, P.58, P.59, P.60, P.61, P.63, P.64, P.67, P.68, P.69 P.70, P.72, P.74, P.77, P78 and P.79 show an activity of over 80% at a concentration of 400 ppm.

[7] = test system: Heliothis virescens (Tobacco Budworm); experiment: Example B2: activity against Heliothis virescens, ovo-larvicide, feeding/contact, curative; type: in vivo; conditions: 96 h, 4 days incubation, eggs 0-24 h old
Description: Activity Against Heliothis virescens (Tobacco Budworm)
(Ovo-Larvicide, Feeding/Contact Activity, Curative)
Eggs (0-24 h old) are placed in 24-well microtiter plate on artificial diet and treated with test solutions by pipetting. After an incubation period of 4 days, samples are checked for egg mortality, larval mortality, and growth regulation.

[8] = test system: Thrips tabaci (Onion Thrips); experiment: Example B7: activity against Thrips tabaci, mixed population, feeding/residual contact, preventive; conditions: 144 h, read-out: activity
[9] = test system: Myzus persicae (Green Peach Aphid); experiment: Example B6: activity against Myzus persicae, mixed population, systemic/feeding, curative (pea seedling roots); conditions: 144 h, read-out: activity
[10] = test system: Aphis craccivora (Pea Aphid); experiment: Example B11: activity against Aphis craccivora, mixed population, systemic/feeding; type: in vivo; conditions: 144 h, 6 days, roots in test solution (systemic)
From the text: Activity Against Aphis craccivora (Pea Aphid)
(Mixed Population, Systemic/Feeding)
6 days later, samples are checked for mortality.

Measured: pest or weed control at 400 ppm

O=C(NCC1CC1)c1c(NC(=O)c2cc(C(F)(F)F)nn2-c2ncccc2Cl)c(Cl)cc2cn[nH]c12 [P.11]
not listed: [8] | [9] | [10]
> 80%: all other assays above

O=C(NC1(C2CC2)CC1)c1c(NC(=O)c2cc(C(F)(F)F)nn2-c2ncccc2Cl)c(Cl)cc2cn[nH]c12 [P.12]
not listed: [10]
> 80%: all other assays above

CSCC(C)(C)NC(=O)c1c(NC(=O)c2cc(C(F)(F)F)nn2-c2ncccc2Cl)c(Cl)cc2cn[nH]c12 [P.13]
not listed: [5]
> 80%: all other assays above

O=C(NC1(C2CC2)CC1)c1c(NC(=O)c2cc(C(F)(F)F)nn2-c2ncccc2Cl)c(Br)cc2cn[nH]c12 [P.18]
not listed: [9] | [10]
> 80%: all other assays above

O=C(NCC1CC1)c1c(NC(=O)c2cc(C(F)(F)F)nn2-c2ncccc2Cl)c(Br)cc2cn[nH]c12 [P.19]
not listed: [8] | [10]
> 80%: all other assays above

Cc1ccc2c(C(=O)NC(C)C)c(NC(=O)c3cc(C(F)(F)F)nn3-c3ncccc3Cl)c(C)cc2n1 [P.20]
> 80%: [4] | [5] | [6] | [7]

CNC(=O)c1c(NC(=O)c2cc(C(F)(F)F)nn2-c2ncccc2Cl)c(Cl)cc2cn[nH]c12 [P.29]
not listed: [1] | [10]
> 80%: all other assays above

O=C(NC1CC12CC2)c1c(NC(=O)c2cc(C(F)(F)F)nn2-c2ncccc2Cl)c(Cl)cc2cn[nH]c12 (stereo not shown) [P.31]
> 80%: [2] | [3] | [4] | [5] | [6] | [7]

CC1(NC(=O)c2c(NC(=O)c3cc(C(F)(F)F)nn3-c3ncccc3Cl)c(Cl)cc3cn[nH]c23)CSC1 [P.32]
not listed: [1] | [3] | [10]
> 80%: all other assays above

CCNC(=O)c1c(NC(=O)c2cc(Cl)nn2-c2ncccc2Cl)c(Br)cc2cn[nH]c12 [P.37]
not listed: [1] | [10]
> 80%: all other assays above

O=C(NC1(C2CC2)CC1)c1c(NC(=O)c2cc(C(F)F)nn2-c2ncccc2Cl)c(Cl)cc2cn[nH]c12 [P.38]
not listed: [8] | [9] | [10]
> 80%: all other assays above

O=C(NC1(C2CC2)CC1)c1c(NC(=O)c2cc(Cl)nn2-c2ncccc2Cl)c(Cl)cc2cn[nH]c12 [P.45, 5-chloro-6-{[5-chloro-2-(3-chloro-pyridin-2-yl)-2H-pyrazole-3-carbonyl]-amino}-1H-indazole-7-carboxylic acid bicyclopropyl-1-ylamide]
not listed: [5] | [6] | [7]
> 80%: all other assays above

Cc1cc2cn[nH]c2c(C(=O)NC(C)C)c1NC(=O)c1cc(OCC(F)(F)F)nn1-c1ncccc1Cl [P.52, 6-{[2-(3-chloro-pyridin-2-yl)-5-(2,2,2-trifluoro-ethoxy)-2H-pyrazole-3-carbonyl]-amino}-5-methyl-1H-indazole-7-carboxylic acid isopropylamide]
not listed: [5]
> 80%: all other assays above
